Reference: patent publication US8969516B2, “Method of hydrolysis of peptide bond” (priority 2006, dated 2015)

Test: MALDI-TOF screening of Ni^2+ dependent hydrolysis in a combinatorial peptide library
Format: physicochemical
Details: Ni^2+ 2 mM, pH 8.2, 10 mM Tris, score=24/tm
Procedure, shortened: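 Ni2+ 2 mM, peptide pool 1 mM (total), 10 mM Tris pH 8.2; 37 °C and 45 °C in parallel; MS aliquots at 2/4/6/8 h; products detected visually. X: all proteinogenic residues except Asp, Glu, Cys; Z: all except Cys.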

[1] = CH3CO-Gly-Ala-Thr-X-His-Z-Lys-Phe-Leu-NH2 library, 37° C.
[2] = CH3CO-Gly-Ala-Thr-X-His-Z-Lys-Phe-Leu-NH2 library, 45° C.
[3] = CH3CO-Gly-Ala-Ser-X-His-Z-Lys-Phe-Leu-NH2 library, 37° C.
[4] = CH3CO-Gly-Ala-Ser-X-His-Z-Lys-Phe-Leu-NH2 library, 45° C.

Ac-GATSHPKFL-NH2 [TSHP]
hydrolysis score from MALDI-TOF screening [1]: 0 (a score of 0 if no trace of the product of hydrolysis was seen after 8 hours of incubation)
hydrolysis score from MALDI-TOF screening [2]: 0 (a score of 0 if no trace of the product of hydrolysis was seen after 8 hours of incubation)

Ac-GASIHIKFL-NH2 [SIHI]
hydrolysis score from MALDI-TOF screening [3]: 3 (a score of 3 for detection at 8 hours)
hydrolysis score from MALDI-TOF screening [4]: 3 (a score of 3 for detection at 8 hours)

Ac-GASPHQKFL-NH2 [SPHQ]
hydrolysis score from MALDI-TOF screening [3]: 0 (a score of 0 if no trace of the product of hydrolysis was seen after 8 hours of incubation)
hydrolysis score from MALDI-TOF screening [4]: 0 (a score of 0 if no trace of the product of hydrolysis was seen after 8 hours of incubation)

Ac-GASFHMKFL-NH2 [SFHM]
hydrolysis score from MALDI-TOF screening [3]: 0 (a score of 0 if no trace of the product of hydrolysis was seen after 8 hours of incubation)
hydrolysis score from MALDI-TOF screening [4]: 3 (a score of 3 for detection at 8 hours)

Ac-GATYHQKFL-NH2 [TYHQ]
hydrolysis score from MALDI-TOF screening [1]: 0 (a score of 0 if no trace of the product of hydrolysis was seen after 8 hours of incubation)
hydrolysis score from MALDI-TOF screening [2]: 0 (a score of 0 if no trace of the product of hydrolysis was seen after 8 hours of incubation)

Ac-GASLHDKFL-NH2 [SLHD]
hydrolysis score from MALDI-TOF screening [3]: 0 (a score of 0 if no trace of the product of hydrolysis was seen after 8 hours of incubation)
hydrolysis score from MALDI-TOF screening [4]: 0 (a score of 0 if no trace of the product of hydrolysis was seen after 8 hours of incubation)

Ac-GASGHHKFL-NH2 [SGHH]
hydrolysis score from MALDI-TOF screening [3]: 0 (a score of 0 if no trace of the product of hydrolysis was seen after 8 hours of incubation)
hydrolysis score from MALDI-TOF screening [4]: 0 (a score of 0 if no trace of the product of hydrolysis was seen after 8 hours of incubation)

Ac-GATTHSKFL-NH2 [TTHS]
hydrolysis score from MALDI-TOF screening [1]: 0 (a score of 0 if no trace of the product of hydrolysis was seen after 8 hours of incubation)
hydrolysis score from MALDI-TOF screening [2]: 0 (a score of 0 if no trace of the product of hydrolysis was seen after 8 hours of incubation)

Ac-GATVHFKFL-NH2 [TVHF]
hydrolysis score from MALDI-TOF screening [1]: 0 (a score of 0 if no trace of the product of hydrolysis was seen after 8 hours of incubation)
hydrolysis score from MALDI-TOF screening [2]: 0 (a score of 0 if no trace of the product of hydrolysis was seen after 8 hours of incubation)

Ac-GATPHNKFL-NH2 [TPHN]
hydrolysis score from MALDI-TOF screening [2]: 0 (a score of 0 if no trace of the product of hydrolysis was seen after 8 hours of incubation)

Ac-GATGHIKFL-NH2 [TGHI]
hydrolysis score from MALDI-TOF screening [1]: 0 (a score of 0 if no trace of the product of hydrolysis was seen after 8 hours of incubation)
hydrolysis score from MALDI-TOF screening [2]: 0 (a score of 0 if no trace of the product of hydrolysis was seen after 8 hours of incubation)

Ac-GASPHDKFL-NH2 [SPHD]
hydrolysis score from MALDI-TOF screening [3]: 0 (a score of 0 if no trace of the product of hydrolysis was seen after 8 hours of incubation)
hydrolysis score from MALDI-TOF screening [4]: 0 (a score of 0 if no trace of the product of hydrolysis was seen after 8 hours of incubation)

Ac-GASQHKKFL-NH2 [SQHK]
hydrolysis score from MALDI-TOF screening [3]: 4 (a score of 4 for detection at 6 hours)
hydrolysis score from MALDI-TOF screening [4]: 6 (a score of 6 for detection at 4 hours)

Ac-GATKHMKFL-NH2 [TKHM]
hydrolysis score from MALDI-TOF screening [1]: 3 (a score of 3 for detection at 8 hours)
hydrolysis score from MALDI-TOF screening [2]: 4 (a score of 4 for detection at 6 hours)

Ac-GATNHAKFL-NH2 [TNHA]
hydrolysis score from MALDI-TOF screening [1]: 0 (a score of 0 if no trace of the product of hydrolysis was seen after 8 hours of incubation)
hydrolysis score from MALDI-TOF screening [2]: 0 (a score of 0 if no trace of the product of hydrolysis was seen after 8 hours of incubation)

Ac-GATSHNKFL-NH2 [TSHN]
hydrolysis score from MALDI-TOF screening [1]: 0 (a score of 0 if no trace of the product of hydrolysis was seen after 8 hours of incubation)
hydrolysis score from MALDI-TOF screening [2]: 0 (a score of 0 if no trace of the product of hydrolysis was seen after 8 hours of incubation)

Ac-GATFHHKFL-NH2 [TFHH]
hydrolysis score from MALDI-TOF screening [1]: 0 (a score of 0 if no trace of the product of hydrolysis was seen after 8 hours of incubation)
hydrolysis score from MALDI-TOF screening [2]: 0 (a score of 0 if no trace of the product of hydrolysis was seen after 8 hours of incubation)

Ac-GATLHKKFL-NH2 [TLHK]
hydrolysis score from MALDI-TOF screening [1]: 0 (a score of 0 if no trace of the product of hydrolysis was seen after 8 hours of incubation)
hydrolysis score from MALDI-TOF screening [2]: 3 (a score of 3 for detection at 8 hours)

Ac-GASPHPKFL-NH2 [SPHP]
hydrolysis score from MALDI-TOF screening [3]: 0 (a score of 0 if no trace of the product of hydrolysis was seen after 8 hours of incubation)
hydrolysis score from MALDI-TOF screening [4]: 0 (a score of 0 if no trace of the product of hydrolysis was seen after 8 hours of incubation)

Ac-GASHHEKFL-NH2 [SHHE]
hydrolysis score from MALDI-TOF screening [3]: 0 (a score of 0 if no trace of the product of hydrolysis was seen after 8 hours of incubation)
hydrolysis score from MALDI-TOF screening [4]: 0 (a score of 0 if no trace of the product of hydrolysis was seen after 8 hours of incubation)

Ac-GATNHRKFL-NH2 [TNHR]
hydrolysis score from MALDI-TOF screening [1]: 0 (a score of 0 if no trace of the product of hydrolysis was seen after 8 hours of incubation)
hydrolysis score from MALDI-TOF screening [2]: 3 (a score of 3 for detection at 8 hours)

Ac-GASTHIKFL-NH2 [STHI]
hydrolysis score from MALDI-TOF screening [3]: 4 (a score of 4 for detection at 6 hours)
hydrolysis score from MALDI-TOF screening [4]: 6 (a score of 6 for detection at 4 hours)

Ac-GASMHQKFL-NH2 [SMHQ]
hydrolysis score from MALDI-TOF screening [3]: 0 (a score of 0 if no trace of the product of hydrolysis was seen after 8 hours of incubation)
hydrolysis score from MALDI-TOF screening [4]: 0 (a score of 0 if no trace of the product of hydrolysis was seen after 8 hours of incubation)

Ac-GASPHIKFL-NH2 [SPHI]
hydrolysis score from MALDI-TOF screening [3]: 0 (a score of 0 if no trace of the product of hydrolysis was seen after 8 hours of incubation)
hydrolysis score from MALDI-TOF screening [4]: 0 (a score of 0 if no trace of the product of hydrolysis was seen after 8 hours of incubation)

Ac-GATMHPKFL-NH2 [TMHP]
hydrolysis score from MALDI-TOF screening [1]: 0 (a score of 0 if no trace of the product of hydrolysis was seen after 8 hours of incubation)
hydrolysis score from MALDI-TOF screening [2]: 0 (a score of 0 if no trace of the product of hydrolysis was seen after 8 hours of incubation)

Ac-GATAHNKFL-NH2 [TAHN]
hydrolysis score from MALDI-TOF screening [1]: 0 (a score of 0 if no trace of the product of hydrolysis was seen after 8 hours of incubation)
hydrolysis score from MALDI-TOF screening [2]: 0 (a score of 0 if no trace of the product of hydrolysis was seen after 8 hours of incubation)

Ac-GASTHAKFL-NH2 [STHA]
hydrolysis score from MALDI-TOF screening [3]: 0 (a score of 0 if no trace of the product of hydrolysis was seen after 8 hours of incubation)
hydrolysis score from MALDI-TOF screening [4]: 0 (a score of 0 if no trace of the product of hydrolysis was seen after 8 hours of incubation)

Ac-GATQHVKFL-NH2 [TQHV]
hydrolysis score from MALDI-TOF screening [1]: 0 (a score of 0 if no trace of the product of hydrolysis was seen after 8 hours of incubation)
hydrolysis score from MALDI-TOF screening [2]: 0 (a score of 0 if no trace of the product of hydrolysis was seen after 8 hours of incubation)

Ac-GASSHSKFL-NH2 [SSHS]
hydrolysis score from MALDI-TOF screening [3]: 0 (a score of 0 if no trace of the product of hydrolysis was seen after 8 hours of incubation)
hydrolysis score from MALDI-TOF screening [4]: 3 (a score of 3 for detection at 8 hours)
